Experimental data published in US9518038B2, “Condensation product of theanine derivative and carboxylic acid coumarin derivative, its intermediate, preparation method and use thereof” (SHANDONG YINGDONG YINGHAO BIOTECHNOLOGY, INC., priority 2012, dated 2016).
Where two headings read alike, the source gives them in different places.

Experiments:
[1] = tested on: human lung cancer cells A549; test: MTT growth inhibition, A549 cells; type: cell-based; details: 72 h after treatment, read-out: Drug concentration (IC50) at which 50% cancer cells survived
Source text: (§1) Cell lines and cell culture: human lung cancer cells A549 and H460, human breast cancer cells MCF-7 and MDA-MB-231, human gastric cancer cells BGC-823, human prostate cancer cells PC-3, human chronic leukemia cells K562, human lymphoma cells U937, human liver cancer cells SMMC7721 and HepG2, human colon cancer cells HT29, human pancreatic cancer cells PANC-1 and BxPC3, human cervical cancer Hela cell lines, human brain tumor cells Daoy, human neuroma cells D54 and human oral epidermoid cancer cells KBV200 line with strong drug resistance, mouse melanoma cells B16, and highly metastatic Lewis lung cancer cell lines were purchased from American Type Culture Collection of the U.S. These cells were cultured with DMEM and RPMI-1640 culture solutions separately.
(§2) The procedure was as follows:
(§3) (1) 0.25% trypsin was used to digest cancer cells in a logarithmic growth phase to prepare a single-cell suspension, the concentration of cells was adjusted to 5×10^4/mL, and the adjusted suspension was inoculated into a 96-well culture plate with 100 μl per well;
(§4) (2) The culture plate was transferred into a 37° C. incubator with a saturated humidity and 5% of CO2 and cultured for 24 h; the compounds and the intermediates thereof obtained in embodiments 1-7 and the compound as represented by formula (IIIa) or the positive control anti-cancer drug with the concentration of 1-1000 μM/L were added to enable the final concentration to be 0.1-1500 μM/L. Control wells (only added with 200 μl of cell suspension) and drug-free blank control wells (containing the solvent of 0.01% DMSO) were set, each group included 8 wells, and the plate was placed into the 37° C. incubator with saturated humidity and 5% of CO2 for culturing;
(§5) (3) The 96-well plate was taken out at 48 h and 72 h after dosing, the original culture medium was carefully removed by suction, 100 μl of serum-free DMEM culture medium and 10 μl of MTT (5 mg/mL) solution were added in each well. The plate was continuously cultured for another 4 h and then the culture was terminated;
(§6) (4) The supernatant in the wells was carefully removed by suction, each well was added with 150 μl of DMSO and shaked at room temperature for 10-15 min to fully dissolve crystals.
(§7) (5) Colorimetric analysis: the wavelength was selected as 570 nm, the light absorbance (A value) of each well was determined on the microplate reader and the results were recorded; the experiment was repeated for three times;
(§8) (6) the experimental results were calculated according to the following formula: relative survival rate=(A value of each experimental group/A value of cell control group)×100%
(§9) Calculation of median-effect concentration (IC50, namely the drug concentration at which the inhibition rate is 50%, also known as half inhibitory concentration):
(§10) IC50 of the detected component was calculated by using a regression equation.

[2] = tested on: human lung cancer cells H460; test: MTT growth inhibition, H460 cells; type: cell-based; details: NCI-H460, 72 h after treatment, read-out: Drug concentration (IC50) at which 50% cancer cells survived
Source text: as §1, §2, §3, §4, §5, §6, §7, §8, §9, §10

[3] = tested on: human breast cancer cells MCF-7; test: MTT growth inhibition, MCF-7 cells; type: cell-based; details: MCF7, 72 h after treatment, read-out: Drug concentration (IC50) at which 50% cancer cells survived
Source text: as §1, §2, §3, §4, §5, §6, §7, §8, §9, §10

[4] = tested on: human breast cancer cells MDA-MB-231; test: MTT growth inhibition, MDA-MB-231 cells; type: cell-based; details: 72 h after treatment, read-out: Drug concentration (IC50) at which 50% cancer cells survived
Source text: as §1, §2, §3, §4, §5, §6, §7, §8, §9, §10

[5] = tested on: human gastric cancer cells BGC-823; test: MTT growth inhibition, BGC-823 cells; type: cell-based; details: 72 h after treatment, read-out: Drug concentration (IC50) at which 50% cancer cells survived
Source text: as §1, §2, §3, §4, §5, §6, §7, §8, §9, §10

[6] = tested on: human prostate cancer cells PC-3; test: MTT growth inhibition, PC-3 cells; type: cell-based; details: 72 h after treatment, read-out: Drug concentration (IC50) at which 50% cancer cells survived
Source text: as §1, §2, §3, §4, §5, §6, §7, §8, §9, §10

[7] = tested on: human lymphoma cells U937; test: MTT growth inhibition, U937 cells; type: cell-based; details: read-out: Drug concentration (IC50) at which 50% cancer cells survived
Method: as §2, §5, §6, §7, §8, §10

[8] = tested on: human pancreatic cancer cells PANC-1; test: MTT growth inhibition, PANC-1 cells; type: cell-based; details: 72 h after treatment, read-out: Drug concentration (IC50) at which 50% cancer cells survived
Source text: as §1, §2, §3, §4, §5, §6, §7, §8, §9, §10

[9] = tested on: human cervical cancer Hela cell lines; test: MTT growth inhibition, Hela cells; type: cell-based; details: 72 h after treatment, read-out: Drug concentration (IC50) at which 50% cancer cells survived
Source text: as §1, §2, §3, §4, §5, §6, §7, §8, §9, §10

[10] = tested on: human liver cancer cells SMMC7721; test: MTT growth inhibition, SMMC7721 cells; type: cell-based; details: SMMC-7721, S-7721 (SMMC7721), 72 h after treatment, read-out: Drug concentration (IC50) at which 50% cancer cells survived
Source text: as §1, §2, §3, §4, §5, §6, §7, §8, §9, §10

[11] = tested on: human colon cancer cells HT29; test: MTT growth inhibition, HT29 cells; type: cell-based; details: HT-29, 72 h after treatment, read-out: Drug concentration (IC50) at which 50% cancer cells survived
Source text: as §1, §2, §3, §4, §5, §6, §7, §8, §9, §10

mouse melanoma cells B16 = test: MTT growth inhibition, B16 cells; type: cell-based; details: 72 h after treatment, read-out: Drug concentration (IC50) at which 50% cancer cells survived
Source text: as §1, §2, §3, §4, §5, §6, §7, §8, §9, §10

[12] = tested on: human chronic leukemia cells K562; test: MTT growth inhibition, K562 cells; type: cell-based; details: 72 h after treatment, read-out: Drug concentration (IC50) at which 50% cancer cells survived
Source text: as §1, §2, §3, §4, §5, §6, §7, §8, §9, §10

[13] = tested on: highly metastatic Lewis lung cancer cell lines; test: MTT growth inhibition, LLC cells; type: cell-based, mouse; details: Mus musculus, Lewis lung carcinoma, 72 h after treatment, read-out: Drug concentration (IC50) at which 50% cancer cells survived
Source text: as §1, §2, §3, §4, §5, §6, §7, §8, §9, §10

[14] = tested on: human pancreatic cancer cells BxPC3; test: MTT growth inhibition, BxPc3 cells; type: cell-based; details: Homo sapiens, BXPC-3, 72 h after treatment, read-out: Drug concentration (IC50) at which 50% cancer cells survived
Source text: as §1, §2, §3, §4, §5, §6, §7, §8, §9, §10

[15] = tested on: human liver cancer cells HepG2; test: MTT growth inhibition, HepG2 cells; type: cell-based; details: 72 h after treatment, read-out: Drug concentration (IC50) at which 50% cancer cells survived
Source text: as §1, §2, §3, §4, §5, §6, §7, §8, §9, §10

[16] = tested on: Caski human cervical cancer cells; test: MTT growth inhibition, Caski cells; type: cell-based; details: Ca-Ski, 72 h after treatment, read-out: Drug concentration (IC50) at which 50% cancer cells survived
[17] = tested on: human brain tumor cells Daoy; test: MTT growth inhibition, Daoy cells; type: cell-based; details: 72 h after treatment, read-out: Drug concentration (IC50) at which 50% cancer cells survived
Source text: as §1, §2, §3, §4, §5, §6, §7, §8, §9, §10

human neuroma cells D54 = test: MTT growth inhibition, D54 cells; type: cell-based; details: 72 h after treatment, read-out: Drug concentration (IC50) at which 50% cancer cells survived
Source text: as §1, §2, §3, §4, §5, §6, §7, §8, §9, §10

[18] = tested on: human oral epidermoid cancer cells KBV200; test: MTT growth inhibition, KBV200 cells; type: cell-based; details: 72 h after treatment, read-out: Drug concentration (IC50) at which 50% cancer cells survived
Source text: as §1, §2, §3, §4, §5, §6, §7, §8, §9, §10

[19] = tested on: human lung cancer cells A549 xenograft; test: In-vivo growth of A549 xenografts in nude mice; parameters: species or system BALB/c nude mice; details: positive controls: cisplatin 1.5 mg/kg/day, cyclophosphamide 60 mg/kg/2 day, endostar 8 mg/kg
Method: (§11) RPMI1640 and DMEM culture solutions: Hyclone Company; inactivated fetal bovine serum: Hyclone Company, preserved at −20° C.; trypsin: Amersco Company; and 0.4% trypan blue: Sigma Company;
(§12) (3) Observation of growth of tumors in nude mice: the activities (including food intake, traits of urine and stool, mental state and the like) of the nude mice and the tumor growth time and growth situation of the transplanted tumors were observed every day, the body weight and the size of the tumors were measured once every 2-3 days. The long diameter a and the short diameter b (mm) of each tumor were measured by a vernier caliper to calculate the volume, wherein the volume V=π1/2·ab^2 (mm^3);
(§13) (4) sacrifice of animals: the mice were anesthetized and photoed after treatment experiments; the nude mice were sacrificed by breaking neck, the tumor tissues were stripped under sterile conditions and the weight of the tumors was weighed; and the effects of the drugs on pathology and toxicity of the various organs and tissues were detected.

[20] = tested on: human breast cancer cells MDA-MB231 xenograft; test: In-vivo growth of MDA-MB231 xenografts in nude mice; parameters: species or system BALB/c nude mice; details: MB-231 xenograft; positive controls: cisplatin 1.5 mg/kg/day, cyclophosphamide 60 mg/kg/2 day, endostar 8 mg/kg
Method: as §11, §12, §13

[21] = tested on: human breast cancer cells MCF-7 xenograft; test: In-vivo growth of MCF-7 xenografts in nude mice; parameters: species or system BALB/c nude mice; details: positive controls: cisplatin 1.5 mg/kg/day, cyclophosphamide 60 mg/kg/2 day, endostar 8 mg/kg
Method: as §11, §12, §13

[22] = tested on: human liver cancer cells SMMC7721 xenograft; test: In-vivo growth of SMMC7721 xenografts in nude mice; parameters: species or system BALB/c nude mice; details: S-7721 xenograft; positive controls: cisplatin 1.5 mg/kg/day, cyclophosphamide 60 mg/kg/2 day, endostar 8 mg/kg
Method: as §11, §12, §13

[23] = tested on: human pancreatic cancer cells PANC-1 xenograft; test: In-vivo growth of PANC-1 xenografts in nude mice; parameters: species or system BALB/c nude mice; details: positive controls: cisplatin 1.5 mg/kg/day, endostar 8 mg/kg
Method: as §11, §12, §13

[24] = tested on: human cervical cancer cells Hela xenograft; test: In-vivo growth of Hela xenografts in nude mice; parameters: species or system BALB/c nude mice; details: positive controls: cisplatin 1.5 mg/kg/day, endostar 8 mg/kg
Method: as §11, §12, §13

[25] = Homo sapiens, U-937, 72 h after treatment

SMILES | IC50 [1] [µM] | IC50 [2] [µM] | IC50 [3] [µM] | IC50 [4] [µM] | IC50 [5] [µM] | IC50 [6] [µM] | IC50 [7, 25] [µM] | IC50 [8] [µM] | IC50 ([9]; Homo sapiens) [µM] | IC50 [10] [µM] | IC50 [11] [µM] | IC50 (mouse melanoma cells B16; Mus musculus) [µM] | IC50 [12] [µM] | IC50 [13] [µM] | IC50 [18] [µM] | other results
O=C(O)c1cc2cc([N+](=O)[O-])ccc2oc1=O [Compound IIIf, 6-nitrocoumarin-3-carboxylic acid] | 580 | 460 | 400 | 470 | 650 | 530 | 450 | 430 | 580 | 460 | 460 | 670 | 300 | 370 | 300 | IC50 [14]: 114 µM; IC50 [15]: 360 µM; IC50 [16]: 300 µM; IC50 ([17]; Homo sapiens): 400 µM; IC50 (human neuroma cells D54; Homo sapiens): 300 µM
O=c1c(-c2ccc(O)cc2)coc2cc(O)cc(O)c12 [Genistein, reference compound] |  |  |  |  | 135 |  |  |  |  |  |  |  |  |  |  | 
COc1cccc2c1C(=O)c1c(O)c3c(c(O)c1C2=O)C[C@@](O)(C(C)=O)C[C@@H]3O[C@H]1C[C@H](N)[C@H](O)[C@H](C)O1 [Daunorubicin, reference compound] |  | 63 | 58 |  | 68 | 51 |  | 55 |  |  | 63 |  |  |  | 1 | 
O=C(O)c1cc2cc(Br)ccc2oc1=O [Compound IIId, 6-bromocoumarin-3-carboxylic acid] | 600 | 500 | 400 | 500 | 700 ± 50 | 500 | 500 | 500 | 600 | 500 | 700 | 600 | 600 | 400 |  | 
N.N.[Cl][Pt][Cl] [Cisplatin, reference compound] |  |  |  |  |  |  |  |  |  |  |  |  |  |  |  | IC50 [9]: 66 µM; IC50 (mouse melanoma cells B16): 67 ± 30 µM; IC50 [17]: 1.6 µM; IC50 (human neuroma cells D54): 21 µM; Curative effect (inhibition rate %) of tumor weight [19]: A/46.7% ± 6.5*;; Curative effect (inhibition rate %) of tumor weight [20]: A/61.3% ± 6.7*;; Curative effect (inhibition rate %) of tumor weight [21]: A.39.9% ± 7.8;; Curative effect (inhibition rate %) of tumor weight [22]: A.69.6% ± 7.9;; Curative effect (inhibition rate %) of tumor weight [23]: A/25.3% ± 7.7; Curative effect (inhibition rate %) of tumor weight [24]: A.36.6% ± 7.5
N.N.O=C([O-])C1(C(=O)[O-])CCC1.[Pt+2] [Carboplatin, reference compound] |  |  |  |  |  |  |  |  |  |  |  |  |  |  |  | IC50 ([7]; 72 h after treatment): 58 ± 30 µM
